Laboratory results taken from patent US20150225454A1, “TETRABRANCHED PEPTIDES AND ANALOGUES AS A NEW CLASS OF ANTIMICROBIALS AND THEIR PREPARATION THEREOF” (priority 2012, published 2015).
Where a SMILES comes first, the peptide text is derived from it. Bridges are numbered along the chain shown (N, C = ends). Roman numbers before positions name the chains, in order.

tested on: IOBA-NHC cells; type: cell-based, human; conditions: 24 h
Method: IOBA-NHC cells were cultured under standard conditions (humidified atmosphere of 5% CO2 at 37° C.) in DMEM/F12 supplemented with 1 μg/ml bovine pancreas insulin, 2 ng/ml mouse epidermal growth factor, 0.1 μg/ml cholera toxin, […] hydrocortisone, 10% fetal bovine serum (FBS), 50 UI/ml penicillin, and 50 UI/ml streptomycin. Cells from passages 50-80 were used in all experiments. Every day, normal culture development was observed by phase-contrast microscopy. Cells were removed by gentle trypsin incubation at confluence and counted. They were seeded into 96 well culture plates (Corning, Schiphol-Rijk, The Netherlands) for microtitration analysis of flow cytotoxicity assay (˜10,000 cells/well). Cultures were kept at 37° C. for 24 h. Subconfluent cells (culture surface covering nearly 70%) were then exposed to various peptide concentrations (0.22-225 μM). Cytotoxicity was measured periodically using MultiTox-Fluor Multiplex assay kit (Promega, Wis., USA) by measuring the AFC fluorescence (λex=485 and λem=520 nm).

Row | SMILES | EC50 [µM]
1 | CC(C)[C@H](NC(=O)[C@H](CCCCN)NC(=O)[C@H](CCCNC(=N)N)NC(=O)CNC(=O)[C@@H](N)CCCNC(=N)N)C(=O)N[C@@H](C)C(=O)N[C@@H](CCCNC(=N)N)C(=O)N[C@@H](CCCNC(=N)N)C(=O)NCCCC[C@H](NC(=O)[C@H](CCCNC(=N)N)NC(=O)[C@H](CCCNC(=N)N)NC(=O)[C@H](C)NC(=O)[C@@H](NC(=O)[C@H](CCCCN)NC(=O)[C@H](CCCNC(=N)N)NC(=O)CNC(=O)[C@@H](N)CCCNC(=N)N)C(C)C)C(=O)NCCCC[C@H](NC(=O)[C@H](CCCCNC(=O)[C@H](CCCNC(=N)N)NC(=O)[C@H](CCCNC(=N)N)NC(=O)[C@H](C)NC(=O)[C@@H](NC(=O)[C@H](CCCCN)NC(=O)[C@H](CCCNC(=N)N)NC(=O)CNC(=O)[C@@H](N)CCCNC(=N)N)C(C)C)NC(=O)[C@H](CCCNC(=N)N)NC(=O)[C@H](CCCNC(=N)N)NC(=O)[C@H](C)NC(=O)[C@@H](NC(=O)[C@H](CCCCN)NC(=O)[C@H](CCCNC(=N)N)NC(=O)CNC(=O)[C@@H](N)CCCNC(=N)N)C(C)C)C(=O)N[C@@H](CCCCN)C(=O)O [Peptide B4010-V6A] (I: H-RGRKVARRKKK-OH / II: H-RGRKVARRK / III: H-RGRKVARR / IV: H-RGRKVARR; amide I:9-IV:C, I:10-II:C, II:9-III:C) | > 225
2 | C[C@H](NC(=O)CNC(=O)[C@@H](N)CCCNC(=N)N)C(=O)N[C@@H](C)C(=O)N[C@@H](C)C(=O)N[C@@H](C)C(=O)N[C@@H](CCCNC(=N)N)C(=O)N[C@@H](CCCNC(=N)N)C(=O)NCCCC[C@H](NC(=O)[C@H](CCCNC(=N)N)NC(=O)[C@H](CCCNC(=N)N)NC(=O)[C@H](C)NC(=O)[C@H](C)NC(=O)[C@H](C)NC(=O)[C@H](C)NC(=O)CNC(=O)[C@@H](N)CCCNC(=N)N)C(=O)NCCCC[C@H](NC(=O)[C@H](CCCCNC(=O)[C@H](CCCNC(=N)N)NC(=O)[C@H](CCCNC(=N)N)NC(=O)[C@H](C)NC(=O)[C@H](C)NC(=O)[C@H](C)NC(=O)[C@H](C)NC(=O)CNC(=O)[C@@H](N)CCCNC(=N)N)NC(=O)[C@H](CCCNC(=N)N)NC(=O)[C@H](CCCNC(=N)N)NC(=O)[C@H](C)NC(=O)[C@H](C)NC(=O)[C@H](C)NC(=O)[C@H](C)NC(=O)CNC(=O)[C@@H](N)CCCNC(=N)N)C(=O)N[C@@H](CCCCN)C(=O)O [[(SEQ ID NO: 17)2K]2KK] (I: H-RGAAAARRKKK-OH / II: H-RGAAAARRK / III: H-RGAAAARR / IV: H-RGAAAARR; amide I:9-IV:C, I:10-II:C, II:9-III:C; N-terminus and C-terminus assumed) | > 265
3 | CC(C)[C@H](NC(=O)[C@H](C)NC(=O)[C@H](C)NC(=O)CNC(=O)[C@@H](N)CCCNC(=N)N)C(=O)N[C@H](C(=O)N[C@@H](CCCNC(=N)N)C(=O)N[C@@H](CCCNC(=N)N)C(=O)NCCCC[C@H](NC(=O)[C@H](CCCNC(=N)N)NC(=O)[C@H](CCCNC(=N)N)NC(=O)[C@@H](NC(=O)[C@@H](NC(=O)[C@H](C)NC(=O)[C@H](C)NC(=O)CNC(=O)[C@@H](N)CCCNC(=N)N)C(C)C)C(C)C)C(=O)NCCCC[C@H](NC(=O)[C@H](CCCCNC(=O)[C@H](CCCNC(=N)N)NC(=O)[C@H](CCCNC(=N)N)NC(=O)[C@@H](NC(=O)[C@@H](NC(=O)[C@H](C)NC(=O)[C@H](C)NC(=O)CNC(=O)[C@@H](N)CCCNC(=N)N)C(C)C)C(C)C)NC(=O)[C@H](CCCNC(=N)N)NC(=O)[C@H](CCCNC(=N)N)NC(=O)[C@@H](NC(=O)[C@@H](NC(=O)[C@H](C)NC(=O)[C@H](C)NC(=O)CNC(=O)[C@@H](N)CCCNC(=N)N)C(C)C)C(C)C)C(=O)N[C@@H](CCCCN)C(=O)O)C(C)C [[(SEQ ID NO: 10)2K]2KK] (I: H-RGAAVVRRKKK-OH / II: H-RGAAVVRRK / III: H-RGAAVVRR / IV: H-RGAAVVRR; amide I:9-IV:C, I:10-II:C, II:9-III:C; N-terminus and C-terminus assumed) | 250
4 | CC(C)[C@H](NC(=O)[C@H](CCCCN)NC(=O)[C@H](CCCNC(=N)N)NC(=O)CNC(=O)[C@@H](N)CCCNC(=N)N)C(=O)N[C@H](C(=O)N[C@@H](C)C(=O)N[C@@H](C)C(=O)NCCCC[C@H](NC(=O)[C@H](C)NC(=O)[C@H](C)NC(=O)[C@@H](NC(=O)[C@@H](NC(=O)[C@H](CCCCN)NC(=O)[C@H](CCCNC(=N)N)NC(=O)CNC(=O)[C@@H](N)CCCNC(=N)N)C(C)C)C(C)C)C(=O)NCCCC[C@H](NC(=O)[C@H](CCCCNC(=O)[C@H](C)NC(=O)[C@H](C)NC(=O)[C@@H](NC(=O)[C@@H](NC(=O)[C@H](CCCCN)NC(=O)[C@H](CCCNC(=N)N)NC(=O)CNC(=O)[C@@H](N)CCCNC(=N)N)C(C)C)C(C)C)NC(=O)[C@H](C)NC(=O)[C@H](C)NC(=O)[C@@H](NC(=O)[C@@H](NC(=O)[C@H](CCCCN)NC(=O)[C@H](CCCNC(=N)N)NC(=O)CNC(=O)[C@@H](N)CCCNC(=N)N)C(C)C)C(C)C)C(=O)N[C@@H](CCCCN)C(=O)O)C(C)C [[(SEQ ID NO: 11)2K]2KK] (I: H-RGRKVVAAKKK-OH / II: H-RGRKVVAAK / III: H-RGRKVVAA / IV: H-RGRKVVAA; amide I:9-IV:C, I:10-II:C, II:9-III:C; N-terminus and C-terminus assumed) | > 257
5 | C[C@H](NC(=O)CNC(=O)[C@@H](N)CCCNC(=N)N)C(=O)N[C@@H](CCCCN)C(=O)N[C@@H](C)C(=O)N[C@@H](C)C(=O)N[C@@H](CCCNC(=N)N)C(=O)N[C@@H](CCCNC(=N)N)C(=O)NCCCC[C@H](NC(=O)[C@H](CCCNC(=N)N)NC(=O)[C@H](CCCNC(=N)N)NC(=O)[C@H](C)NC(=O)[C@H](C)NC(=O)[C@H](CCCCN)NC(=O)[C@H](C)NC(=O)CNC(=O)[C@@H](N)CCCNC(=N)N)C(=O)NCCCC[C@H](NC(=O)[C@H](CCCCNC(=O)[C@H](CCCNC(=N)N)NC(=O)[C@H](CCCNC(=N)N)NC(=O)[C@H](C)NC(=O)[C@H](C)NC(=O)[C@H](CCCCN)NC(=O)[C@H](C)NC(=O)CNC(=O)[C@@H](N)CCCNC(=N)N)NC(=O)[C@H](CCCNC(=N)N)NC(=O)[C@H](CCCNC(=N)N)NC(=O)[C@H](C)NC(=O)[C@H](C)NC(=O)[C@H](CCCCN)NC(=O)[C@H](C)NC(=O)CNC(=O)[C@@H](N)CCCNC(=N)N)C(=O)N[C@@H](CCCCN)C(=O)O [[(SEQ ID NO: 15)2K]2KK] (I: H-RGAKAARRKKK-OH / II: H-RGAKAARRK / III: H-RGAKAARR / IV: H-RGAKAARR; amide I:9-IV:C, I:10-II:C, II:9-III:C; N-terminus and C-terminus assumed) | > 250
6 | C[C@H](NC(=O)[C@H](C)NC(=O)[C@H](C)NC(=O)[C@H](C)NC(=O)[C@H](CCCCN)NC(=O)[C@H](CCCNC(=N)N)NC(=O)CNC(=O)[C@@H](N)CCCNC(=N)N)C(=O)NCCCC[C@H](NC(=O)[C@H](C)NC(=O)[C@H](C)NC(=O)[C@H](C)NC(=O)[C@H](C)NC(=O)[C@H](CCCCN)NC(=O)[C@H](CCCNC(=N)N)NC(=O)CNC(=O)[C@@H](N)CCCNC(=N)N)C(=O)NCCCC[C@H](NC(=O)[C@H](CCCCNC(=O)[C@H](C)NC(=O)[C@H](C)NC(=O)[C@H](C)NC(=O)[C@H](C)NC(=O)[C@H](CCCCN)NC(=O)[C@H](CCCNC(=N)N)NC(=O)CNC(=O)[C@@H](N)CCCNC(=N)N)NC(=O)[C@H](C)NC(=O)[C@H](C)NC(=O)[C@H](C)NC(=O)[C@H](C)NC(=O)[C@H](CCCCN)NC(=O)[C@H](CCCNC(=N)N)NC(=O)CNC(=O)[C@@H](N)CCCNC(=N)N)C(=O)N[C@@H](CCCCN)C(=O)O [[(SEQ ID NO: 18)2K]2KK] (I: H-RGRKAAAAKKK-OH / II: H-RGRKAAAAK / III: H-RGRKAAAA / IV: H-RGRKAAAA; amide I:9-IV:C, I:10-II:C, II:9-III:C; N-terminus and C-terminus assumed) | > 273
7 | CC(C)[C@H](NC(=O)[C@H](CCCCN)NC(=O)[C@H](CCCNC(=N)N)NC(=O)[C@H](C)NC(=O)[C@@H](N)CCCNC(=N)N)C(=O)N[C@H](C(=O)N[C@@H](CCCNC(=N)N)C(=O)N[C@@H](CCCNC(=N)N)C(=O)NCCCC[C@H](NC(=O)[C@H](CCCNC(=N)N)NC(=O)[C@H](CCCNC(=N)N)NC(=O)[C@@H](NC(=O)[C@@H](NC(=O)[C@H](CCCCN)NC(=O)[C@H](CCCNC(=N)N)NC(=O)[C@H](C)NC(=O)[C@@H](N)CCCNC(=N)N)C(C)C)C(C)C)C(=O)NCCCC[C@H](NC(=O)[C@H](CCCCNC(=O)[C@H](CCCNC(=N)N)NC(=O)[C@H](CCCNC(=N)N)NC(=O)[C@@H](NC(=O)[C@@H](NC(=O)[C@H](CCCCN)NC(=O)[C@H](CCCNC(=N)N)NC(=O)[C@H](C)NC(=O)[C@@H](N)CCCNC(=N)N)C(C)C)C(C)C)NC(=O)[C@H](CCCNC(=N)N)NC(=O)[C@H](CCCNC(=N)N)NC(=O)[C@@H](NC(=O)[C@@H](NC(=O)[C@H](CCCCN)NC(=O)[C@H](CCCNC(=N)N)NC(=O)[C@H](C)NC(=O)[C@@H](N)CCCNC(=N)N)C(C)C)C(C)C)C(=O)N[C@@H](CCCCN)C(=O)O)C(C)C [Peptide B4010-G2A] (I: H-RARKVVRRKKK-OH / II: H-RARKVVRRK / III: H-RARKVVRR / IV: H-RARKVVRR; amide I:9-IV:C, I:10-II:C, II:9-III:C) | 110
